Test results reported in the NIST ThermoML archive (doi:10.1021/je050402s).

Assay: xn = mol fraction of the nth substance listed
Settings: 100.5 kPa, Liquid; for viscosity: Capillary tube (Ostwald / Ubbelohde) method

CCOC(=O)CC(C)C [ethyl 3-methylbutanoate] + CCO
Settings | mass density, 308.15 K [kg/m3] | mass density, 318.15 K [kg/m3] | viscosity, 308.15 K [mPa·s] | viscosity, 318.15 K [mPa·s]
x1 = 0.05 | 784.95 | 775.9 | 0.852 | 0.715
x1 = 0.1 | 792.29 | 783.04 | 0.793 | 0.668
x1 = 0.15 | 798.73 | 789.31 | 0.75 | 0.638
x1 = 0.2 | 804.39 | 794.81 | 0.718 | 0.618
x1 = 0.25 | 809.39 | 799.73 | 0.695 | 0.6
x1 = 0.3 | 813.92 | 804.15 | 0.677 | 0.587
x1 = 0.35 | 817.96 | 808.12 | 0.663 | 0.579
x1 = 0.4 | 821.66 | 811.75 | 0.653 | 0.571
x1 = 0.45 | 825.05 | 815.07 | 0.645 | 0.565
x1 = 0.5 | 828.15 | 818.12 | 0.638 | 0.559
x1 = 0.55 | 831.01 | 820.95 | 0.631 | 0.554
x1 = 0.6 | 833.64 | 823.56 | 0.624 | 0.55
x1 = 0.65 | 836.09 | 826 | 0.62 | 0.548
x1 = 0.7 | 838.38 | 828.28 | 0.618 | 0.547
x1 = 0.75 | 840.55 | 830.44 | 0.619 | 0.546
x1 = 0.8 | 842.6 | 832.48 | 0.621 | 0.549
x1 = 0.85 | 844.51 | 834.44 | 0.625 | 0.552
x1 = 0.9 | 846.34 | 836.27 | 0.631 | 0.556
x1 = 0.95 | 848.15 | 838.1 | 0.634 | 0.56
x1 = 1 | 849.83 | 839.81 | 0.642 | 0.566
